One block for each molecule: values may come before it.
Key:
Assay in all cases: Off-Target Kinase Profiling
Format in all cases: biochemical
Conditions in all cases: 10 μM; ATP near Km
JNK2alpha2 = biological target: T1, JNK2alpha2 (Homo sapiens, UniProt P45984)
T1 construct: purchased Millipore, Inc. (KinaseProfiler service)
Method: (§1) Representative compounds of the invention (Examples 33 and 10) were tested for off-target kinase activity at a concentration of 10 μM by Millipore, Inc. in their KinaseProfiler™ service against all the kinases available in their full kinase panel. Compounds were run in duplicate at a concentration of ATP near the Km for each individual kinase according to Millipore's specifications. The results are shown in Table B. Data are reported as percent of control (POC) and are the average of the two replicates.

SRC = biological target: T2, SRC (Homo sapiens, UniProt P12931)
T2 construct: purchased Millipore, Inc. (KinaseProfiler service)
Method: as §1

p38gamma = biological target: T3, p38gamma (Homo sapiens, UniProt P53778)
T3 construct: purchased Millipore, Inc. (KinaseProfiler service)
Method: as §1

WNK2 = biological target: T4, WNK2 (Homo sapiens, UniProt Q9Y3S1)
T4 construct: purchased Millipore, Inc. (KinaseProfiler service)
Method: as §1

IRAK4 = biological target: T5, IRAK4 (Homo sapiens, UniProt Q9NWZ3)
T5 construct: purchased Millipore, Inc. (KinaseProfiler service)
Method: as §1

Hck = biological target: T6, Hck (Homo sapiens, UniProt P08631)
T6 construct: purchased Millipore, Inc. (KinaseProfiler service)
Method: as §1

c-RAF = system: c-RAF
Method: as §1

PAK4 = biological target: T7, PAK4 (Homo sapiens, UniProt O96013)
T7 construct: purchased Millipore, Inc. (KinaseProfiler service)
Method: as §1

EphA5 = biological target: T8, EphA5 (Homo sapiens, UniProt P54756)
T8 construct: purchased Millipore, Inc. (KinaseProfiler service)
Method: as §1

mTOR = biological target: T9, mTOR (Homo sapiens, UniProt P42345)
T9 construct: purchased Millipore, Inc. (KinaseProfiler service)
Method: as §1

FGFR1 = biological target: T10, FGFR1 (Homo sapiens, UniProt P11362)
T10 construct: purchased Millipore, Inc. (KinaseProfiler service)
Method: as §1

MAP4K2 = biological target: T11, MAP4K2 (Homo sapiens, UniProt Q12851)
T11 construct: purchased Millipore, Inc. (KinaseProfiler service)
Method: as §1

AKT1 = biological target: T12, AKT1 (Homo sapiens, UniProt P31749)
T12 construct: purchased Millipore (KinaseProfiler service)
Method: as §1

CK1gamma1 = biological target: T13, CK1gamma1 (Homo sapiens, UniProt Q9HCP0)
T13 construct: purchased Millipore, Inc. (KinaseProfiler service)
Method: as §1

MAPKAP-K5 = biological target: T14, MAPKAP-K5 (Homo sapiens, UniProt Q8IW41)
T14 construct: purchased Millipore, Inc. (KinaseProfiler service)
Method: as §1

CLK3 = biological target: T15, CLK3 (Homo sapiens, UniProt P49761)
T15 construct: purchased Millipore, Inc. (KinaseProfiler service)
Method: as §1

EphA7 = biological target: T16, EphA7 (Homo sapiens, UniProt Q15375)
T16 construct: purchased Millipore, Inc. (KinaseProfiler service)
Method: as §1

IGF-1R Activated = biological target: T17, IGF-1R Activated (Homo sapiens, UniProt P08069)
T17 construct: purchased Millipore, Inc. (KinaseProfiler service)
Method: as §1

FGFR4 = biological target: T18, FGFR4 (Homo sapiens, UniProt P22455)
T18 construct: purchased Millipore, Inc. (KinaseProfiler service)
Method: as §1

DYRK2 = biological target: T19, DYRK2 (Homo sapiens, UniProt Q92630)
T19 construct: purchased Millipore, Inc. (KinaseProfiler service)
Method: as §1

ERK2 = biological target: T20, ERK2 (Homo sapiens, UniProt P28482)
T20 construct: purchased Millipore, Inc. (KinaseProfiler service)
Method: as §1

JNK1alpha1 = biological target: T21, JNK1alpha1 (Homo sapiens, UniProt P45983)
T21 construct: purchased Millipore, Inc. (KinaseProfiler service)
Method: as §1

BLK_m = biological target: T22, BLK_m (Mus musculus, UniProt P16277)
T22 construct: purchased Millipore (KinaseProfiler service)
Method: as §1

CDK6/cyclinD3 = biological target: T23, CDK6/cyclinD3 (Homo sapiens, UniProt Q00534)
T23 construct: purchased Millipore, Inc. (KinaseProfiler service)
Method: as §1

EphB4 = biological target: T24, EphB4 (Homo sapiens, UniProt P54760)
T24 construct: purchased Millipore, Inc. (KinaseProfiler service)
Method: as §1

PRK2 = biological target: T25, PRK2 (Homo sapiens, UniProt Q16513)
T25 construct: purchased Millipore, Inc. (KinaseProfiler service)
Method: as §1

CK2 = biological target: T26, CK2 (Homo sapiens, UniProt P68400)
T26 construct: purchased Millipore, Inc. (KinaseProfiler service)
Method: as §1

MKNK2 = biological target: T27, MKNK2 (Homo sapiens, UniProt Q9HBH9)
T27 construct: purchased Millipore, Inc. (KinaseProfiler service)
Method: as §1

TBK1 = biological target: T28, TBK1 (Homo sapiens, UniProt Q9UHD2)
T28 construct: purchased Millipore, Inc. (KinaseProfiler service)
Method: as §1

ERK1 = biological target: T29, ERK1 (Homo sapiens, UniProt P27361)
T29 construct: purchased Millipore, Inc. (KinaseProfiler service)
Method: as §1

CDK2/cyclinA = biological target: T30, CDK2/cyclinA (Homo sapiens, UniProt P24941)
T30 construct: purchased Millipore (KinaseProfiler service)
Method: as §1

Fer = biological target: T31, Fer (Homo sapiens, UniProt P16591)
T31 construct: purchased Millipore, Inc. (KinaseProfiler service)
Method: as §1

Rsk1 = biological target: T32, Rsk1 (Homo sapiens, UniProt Q15418)
T32 construct: purchased Millipore, Inc. (KinaseProfiler service)
Method: as §1

EphA4 = biological target: T33, EphA4 (Homo sapiens, UniProt P54764)
T33 construct: purchased Millipore, Inc. (KinaseProfiler service)
Method: as §1

TSSK1 = biological target: T34, TSSK1 (Homo sapiens, UniProt Q9BXA7)
T34 construct: purchased Millipore, Inc. (KinaseProfiler service)
Method: as §1

MSSK1 = biological target: T35, MSSK1 (Homo sapiens, UniProt Q9UPE1)
T35 construct: purchased Millipore, Inc. (KinaseProfiler service)
Method: as §1

EphA2 = biological target: T36, EphA2 (Homo sapiens, UniProt P29317)
T36 construct: purchased Millipore, Inc. (KinaseProfiler service)
Method: as §1

STK33 = biological target: T37, STK33 (Homo sapiens, UniProt Q9BYT3)
T37 construct: purchased Millipore, Inc. (KinaseProfiler service)
Method: as §1

CAMK4 = biological target: T38, CAMK4 (Homo sapiens, UniProt Q16566)
T38 construct: purchased Millipore (KinaseProfiler service)
Method: as §1

ROCK-II = biological target: T39, ROCK-II (Homo sapiens, UniProt O75116)
T39 construct: purchased Millipore, Inc. (KinaseProfiler service)
Method: as §1

PAK5 = biological target: T40, PAK5 (Homo sapiens, UniProt Q9P286)
T40 construct: purchased Millipore, Inc. (KinaseProfiler service)
Method: as §1

T8 sequence (P54756 25-1037): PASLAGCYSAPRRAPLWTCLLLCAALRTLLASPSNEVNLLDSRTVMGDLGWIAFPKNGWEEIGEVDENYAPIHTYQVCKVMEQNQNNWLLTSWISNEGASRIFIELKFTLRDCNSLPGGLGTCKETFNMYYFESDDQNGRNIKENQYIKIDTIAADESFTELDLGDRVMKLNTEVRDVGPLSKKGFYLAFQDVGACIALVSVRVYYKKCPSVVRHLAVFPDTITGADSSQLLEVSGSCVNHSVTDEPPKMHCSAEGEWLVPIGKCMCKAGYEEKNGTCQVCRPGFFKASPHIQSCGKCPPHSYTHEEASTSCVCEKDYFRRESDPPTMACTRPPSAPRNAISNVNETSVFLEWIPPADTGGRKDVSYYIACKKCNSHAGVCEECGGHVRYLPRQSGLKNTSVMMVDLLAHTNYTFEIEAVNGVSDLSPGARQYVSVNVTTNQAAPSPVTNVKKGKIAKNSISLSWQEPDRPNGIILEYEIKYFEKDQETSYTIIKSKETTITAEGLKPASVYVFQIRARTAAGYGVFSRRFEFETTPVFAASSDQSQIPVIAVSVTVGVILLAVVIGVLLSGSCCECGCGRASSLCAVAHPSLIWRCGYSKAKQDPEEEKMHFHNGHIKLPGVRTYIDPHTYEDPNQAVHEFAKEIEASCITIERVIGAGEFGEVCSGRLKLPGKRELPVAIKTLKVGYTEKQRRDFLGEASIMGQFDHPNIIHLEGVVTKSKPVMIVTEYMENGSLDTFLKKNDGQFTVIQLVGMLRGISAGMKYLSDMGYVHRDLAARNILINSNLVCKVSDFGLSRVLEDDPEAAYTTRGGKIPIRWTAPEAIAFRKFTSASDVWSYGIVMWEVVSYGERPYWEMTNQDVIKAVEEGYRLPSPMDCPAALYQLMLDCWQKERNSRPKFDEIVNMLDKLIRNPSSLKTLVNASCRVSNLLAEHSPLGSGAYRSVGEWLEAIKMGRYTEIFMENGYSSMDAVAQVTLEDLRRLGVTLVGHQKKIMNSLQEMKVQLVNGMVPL
T16 sequence (Q15375 28-998): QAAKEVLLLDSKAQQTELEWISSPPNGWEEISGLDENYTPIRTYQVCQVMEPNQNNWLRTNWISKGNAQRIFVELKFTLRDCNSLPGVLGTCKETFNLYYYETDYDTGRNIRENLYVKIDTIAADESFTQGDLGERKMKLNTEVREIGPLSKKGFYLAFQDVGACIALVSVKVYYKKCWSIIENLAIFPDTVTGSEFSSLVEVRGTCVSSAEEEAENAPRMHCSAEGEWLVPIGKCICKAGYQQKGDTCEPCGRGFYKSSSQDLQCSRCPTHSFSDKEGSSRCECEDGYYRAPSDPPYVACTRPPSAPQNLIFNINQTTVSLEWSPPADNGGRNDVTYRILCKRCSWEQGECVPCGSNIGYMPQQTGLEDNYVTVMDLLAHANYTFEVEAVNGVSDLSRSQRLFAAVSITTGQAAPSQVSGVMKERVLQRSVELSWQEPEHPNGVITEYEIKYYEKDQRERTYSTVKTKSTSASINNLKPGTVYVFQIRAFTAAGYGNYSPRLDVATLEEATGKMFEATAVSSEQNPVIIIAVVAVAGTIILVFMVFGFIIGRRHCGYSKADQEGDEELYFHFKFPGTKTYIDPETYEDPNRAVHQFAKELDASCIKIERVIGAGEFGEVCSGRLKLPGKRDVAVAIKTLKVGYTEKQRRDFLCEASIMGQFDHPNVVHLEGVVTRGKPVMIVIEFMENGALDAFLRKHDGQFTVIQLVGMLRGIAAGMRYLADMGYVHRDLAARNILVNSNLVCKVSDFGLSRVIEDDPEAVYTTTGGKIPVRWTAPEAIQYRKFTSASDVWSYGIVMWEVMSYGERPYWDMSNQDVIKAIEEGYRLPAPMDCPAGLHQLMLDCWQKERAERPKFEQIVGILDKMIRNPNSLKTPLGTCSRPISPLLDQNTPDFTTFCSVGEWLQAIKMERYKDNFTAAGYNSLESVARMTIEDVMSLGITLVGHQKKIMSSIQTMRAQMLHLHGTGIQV
T4 sequence (Q9Y3S1 whole entry): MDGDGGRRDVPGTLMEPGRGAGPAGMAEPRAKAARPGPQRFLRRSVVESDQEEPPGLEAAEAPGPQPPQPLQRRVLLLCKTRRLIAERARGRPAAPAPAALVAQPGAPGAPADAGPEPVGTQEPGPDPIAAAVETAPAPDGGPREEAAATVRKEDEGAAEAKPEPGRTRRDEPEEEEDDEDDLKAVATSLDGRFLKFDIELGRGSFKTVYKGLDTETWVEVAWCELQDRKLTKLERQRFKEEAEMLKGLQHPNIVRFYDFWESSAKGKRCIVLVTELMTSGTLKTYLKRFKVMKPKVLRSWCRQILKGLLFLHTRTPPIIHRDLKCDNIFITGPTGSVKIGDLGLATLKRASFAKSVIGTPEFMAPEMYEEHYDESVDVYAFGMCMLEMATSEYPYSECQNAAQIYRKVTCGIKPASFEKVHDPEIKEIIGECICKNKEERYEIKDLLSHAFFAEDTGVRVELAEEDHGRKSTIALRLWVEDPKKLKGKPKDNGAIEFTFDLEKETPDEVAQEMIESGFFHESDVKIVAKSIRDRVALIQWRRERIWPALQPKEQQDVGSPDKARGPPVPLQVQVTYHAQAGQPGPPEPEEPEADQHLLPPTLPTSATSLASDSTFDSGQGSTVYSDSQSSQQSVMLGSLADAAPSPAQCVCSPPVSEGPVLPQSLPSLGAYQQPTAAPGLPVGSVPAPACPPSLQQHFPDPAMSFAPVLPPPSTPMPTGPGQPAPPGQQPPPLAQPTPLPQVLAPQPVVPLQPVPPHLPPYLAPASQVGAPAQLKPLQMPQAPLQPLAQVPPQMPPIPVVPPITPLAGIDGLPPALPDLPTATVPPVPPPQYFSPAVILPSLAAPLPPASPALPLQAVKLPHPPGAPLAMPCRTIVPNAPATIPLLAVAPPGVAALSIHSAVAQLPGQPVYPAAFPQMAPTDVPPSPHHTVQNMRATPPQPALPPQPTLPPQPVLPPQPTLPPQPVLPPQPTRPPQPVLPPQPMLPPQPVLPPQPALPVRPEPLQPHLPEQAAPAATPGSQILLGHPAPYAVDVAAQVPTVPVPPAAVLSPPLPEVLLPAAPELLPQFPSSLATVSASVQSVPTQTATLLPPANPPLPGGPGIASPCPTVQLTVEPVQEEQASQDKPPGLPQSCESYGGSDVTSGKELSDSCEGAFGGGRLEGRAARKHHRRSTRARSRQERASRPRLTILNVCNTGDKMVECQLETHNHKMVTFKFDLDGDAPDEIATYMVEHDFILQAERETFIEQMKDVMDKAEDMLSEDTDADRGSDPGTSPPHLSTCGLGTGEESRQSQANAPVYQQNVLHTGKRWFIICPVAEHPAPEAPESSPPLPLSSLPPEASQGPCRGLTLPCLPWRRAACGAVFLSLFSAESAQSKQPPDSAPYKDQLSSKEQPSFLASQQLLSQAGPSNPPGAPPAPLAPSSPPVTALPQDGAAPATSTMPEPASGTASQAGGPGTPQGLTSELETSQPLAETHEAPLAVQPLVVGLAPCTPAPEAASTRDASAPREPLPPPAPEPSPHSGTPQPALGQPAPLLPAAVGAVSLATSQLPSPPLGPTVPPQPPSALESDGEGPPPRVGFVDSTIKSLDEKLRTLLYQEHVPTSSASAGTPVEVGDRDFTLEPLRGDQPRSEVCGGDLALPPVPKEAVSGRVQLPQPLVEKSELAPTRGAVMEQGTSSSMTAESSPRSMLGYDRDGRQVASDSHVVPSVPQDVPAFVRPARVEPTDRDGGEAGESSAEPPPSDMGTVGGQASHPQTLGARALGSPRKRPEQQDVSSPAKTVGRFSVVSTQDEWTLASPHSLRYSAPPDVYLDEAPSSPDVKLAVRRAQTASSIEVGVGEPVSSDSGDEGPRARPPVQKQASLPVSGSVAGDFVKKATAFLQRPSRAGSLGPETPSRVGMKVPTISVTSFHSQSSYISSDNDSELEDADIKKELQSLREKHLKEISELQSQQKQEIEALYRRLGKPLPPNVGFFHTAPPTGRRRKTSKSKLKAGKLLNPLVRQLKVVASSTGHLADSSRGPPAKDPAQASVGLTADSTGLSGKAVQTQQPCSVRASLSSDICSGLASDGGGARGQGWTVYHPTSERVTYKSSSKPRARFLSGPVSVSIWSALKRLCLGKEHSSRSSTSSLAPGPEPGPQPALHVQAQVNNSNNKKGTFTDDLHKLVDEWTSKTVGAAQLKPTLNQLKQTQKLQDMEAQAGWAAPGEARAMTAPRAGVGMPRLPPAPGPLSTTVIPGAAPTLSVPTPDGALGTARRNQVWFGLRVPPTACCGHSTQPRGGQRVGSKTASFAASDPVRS
T29 sequence (P27361 whole entry): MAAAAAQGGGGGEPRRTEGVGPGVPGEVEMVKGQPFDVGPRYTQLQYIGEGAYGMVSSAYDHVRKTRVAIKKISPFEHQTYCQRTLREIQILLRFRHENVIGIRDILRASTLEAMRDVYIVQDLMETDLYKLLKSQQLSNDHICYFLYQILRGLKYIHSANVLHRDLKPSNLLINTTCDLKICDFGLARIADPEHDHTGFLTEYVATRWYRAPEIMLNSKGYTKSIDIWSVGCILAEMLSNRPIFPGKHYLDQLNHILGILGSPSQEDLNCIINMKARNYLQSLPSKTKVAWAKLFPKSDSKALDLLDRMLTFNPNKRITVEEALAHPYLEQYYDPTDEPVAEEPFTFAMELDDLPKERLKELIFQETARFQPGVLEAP
T5 sequence (Q9NWZ3 whole entry): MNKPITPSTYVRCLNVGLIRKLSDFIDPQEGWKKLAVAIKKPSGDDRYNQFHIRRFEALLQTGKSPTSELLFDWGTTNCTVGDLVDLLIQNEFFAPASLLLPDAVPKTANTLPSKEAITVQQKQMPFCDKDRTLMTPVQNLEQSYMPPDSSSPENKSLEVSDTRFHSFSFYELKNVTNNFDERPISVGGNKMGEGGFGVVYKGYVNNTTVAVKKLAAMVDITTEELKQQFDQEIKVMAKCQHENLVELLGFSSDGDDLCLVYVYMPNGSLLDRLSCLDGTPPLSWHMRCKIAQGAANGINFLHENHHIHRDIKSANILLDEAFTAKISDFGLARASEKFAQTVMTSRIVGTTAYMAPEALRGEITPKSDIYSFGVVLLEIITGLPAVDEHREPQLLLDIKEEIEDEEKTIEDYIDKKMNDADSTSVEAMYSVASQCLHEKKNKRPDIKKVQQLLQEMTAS

Avg POC JNK2alpha2 (JNK2alpha2): 89.5 POC
Avg POC SRC (SRC): 101 POC
Avg POC p38gamma (p38gamma): 107.5 POC
Avg POC WNK2 (WNK2): 140.5 POC
Avg POC IRAK4 (IRAK4): 109.5 POC
Avg POC Hck (Hck): 140 POC
Avg POC c-RAF (c-RAF): 94.5 POC
Avg POC PAK4 (PAK4): 108.5 POC
Avg POC EphA5 (EphA5): 123 POC
Avg POC mTOR (mTOR): 99 POC
Avg POC FGFR1 (FGFR1): 96 POC
Avg POC MAP4K2 (MAP4K2): 115.5 POC
Avg POC AKT1 (AKT1): 132 POC
Avg POC CK1gamma1 (CK1gamma1): 105.5 POC
Avg POC MAPKAP-K5 (MAPKAP-K5): 97.5 POC
Avg POC CLK3 (CLK3): 102 POC
Avg POC EphA7 (EphA7): 94.5 POC
Avg POC IGF-1R Activated (IGF-1R Activated): 86.5 POC
Avg POC FGFR4 (FGFR4): 201.5 POC
Avg POC DYRK2 (DYRK2): 91.5 POC
Avg POC ERK2 (ERK2): 117 POC
Avg POC JNK1alpha1 (JNK1alpha1): 103 POC
Avg POC BLK_m (BLK_m): 119 POC
Avg POC CDK6/cyclinD3 (CDK6/cyclinD3): 108 POC
Avg POC EphB4 (EphB4): 128 POC
Avg POC PRK2 (PRK2): 106 POC
Avg POC CK2 (CK2): 94.5 POC
Avg POC MKNK2 (MKNK2): 101.5 POC
Avg POC TBK1 (TBK1): 105.5 POC
Avg POC ERK1 (ERK1): 95.5 POC
Avg POC CDK2/cyclinA (CDK2/cyclinA): 103.5 POC
Avg POC Fer (Fer): 90.5 POC
Avg POC Rsk1 (Rsk1): 119.5 POC
Avg POC EphA4 (EphA4): 120 POC
Avg POC TSSK1 (TSSK1): 80 POC
Avg POC MSSK1 (MSSK1): 138.5 POC
Avg POC EphA2 (EphA2): 126.5 POC
Avg POC STK33 (STK33): 104.5 POC
Avg POC CAMK4 (CAMK4): 149 POC
Avg POC ROCK-II (ROCK-II): 107.5 POC
Avg POC PAK5 (PAK5): 144.5 POC
Compound: COCc1ccc(C(F)(F)F)c(CNC(=O)Nc2c(C)c(-c3cnn(C)c3)nn2-c2ccccc2)c1 [Example 33, 1-(1′,4-dimethyl-1-phenyl-1H,1′H-[3,4′-bipyrazol]-5-yl)-3-(5-(methoxymethyl)-2-(trifluoromethyl)benzyl)urea]

Avg POC JNK2alpha2 (JNK2alpha2): 81.5 POC
Avg POC SRC (SRC): 96 POC
Avg POC p38gamma (p38gamma): 102.5 POC
Avg POC WNK2 (WNK2): 109 POC
Avg POC IRAK4 (IRAK4): 122.5 POC
Avg POC Hck (Hck): 67 POC
Avg POC c-RAF (c-RAF): 90 POC
Avg POC PAK4 (PAK4): 102.5 POC
Avg POC EphA5 (EphA5): 114 POC
Avg POC mTOR (mTOR): 75 POC
Avg POC FGFR1 (FGFR1): 68 POC
Avg POC MAP4K2 (MAP4K2): 95.5 POC
Avg POC AKT1 (AKT1): 105 POC
Avg POC CK1gamma1 (CK1gamma1): 79 POC
Avg POC MAPKAP-K5 (MAPKAP-K5): 92 POC
Avg POC CLK3 (CLK3): 104.5 POC
Avg POC EphA7 (EphA7): 92.5 POC
Avg POC IGF-1R Activated (IGF-1R Activated): 93.5 POC
Avg POC FGFR4 (FGFR4): 118 POC
Avg POC DYRK2 (DYRK2): 92.5 POC
Avg POC ERK2 (ERK2): 104 POC
Avg POC JNK1alpha1 (JNK1alpha1): 98 POC
Avg POC BLK_m (BLK_m): 97.5 POC
Avg POC CDK6/cyclinD3 (CDK6/cyclinD3): 102 POC
Avg POC EphB4 (EphB4): 140.5 POC
Avg POC PRK2 (PRK2): 88.5 POC
Avg POC CK2 (CK2): 94.5 POC
Avg POC MKNK2 (MKNK2): 98 POC
Avg POC TBK1 (TBK1): 104.5 POC
Avg POC ERK1 (ERK1): 89.5 POC
Avg POC CDK2/cyclinA (CDK2/cyclinA): 98.5 POC
Avg POC Fer (Fer): 96.5 POC
Avg POC Rsk1 (Rsk1): 96.5 POC
Avg POC EphA4 (EphA4): 105.5 POC
Avg POC TSSK1 (TSSK1): 60 POC
Avg POC MSSK1 (MSSK1): 112 POC
Avg POC EphA2 (EphA2): 103 POC
Avg POC STK33 (STK33): 98 POC
Avg POC CAMK4 (CAMK4): 144.5 POC
Avg POC ROCK-II (ROCK-II): 98 POC
Avg POC PAK5 (PAK5): 96.5 POC
Compound: COCc1ccc(C2CCC2)c(CNC(=O)Nc2c(C)c(-c3cnc(C)nc3)nn2-c2ccccc2)c1 [Example 10, 1-(2-cyclobutyl-5-(methoxymethyl)benzyl)-3-(4-methyl-3-(2-methylpyrimidin-5-yl)-1-phenyl-1H-pyrazol-5-yl)urea]
